Test results reported in patent US8633315B2, “Substituted hydroxyethyl amine compounds as beta-secretase modulators and methods of use” (Amgen Inc., priority 2007, dated 2014).

Legend:
BACE1 = BACE1 (Homo sapiens, UniProt P56817); assay: In vitro enzymatic BACE FRET (fluorescence resonance energy transfer) assay; type: biochemical; conditions: read-out: BACE 1 FRET assay
Outline: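 Fluorescence (ex 488 nm, […]) was read after Tris addition raised pH to neutral, ending a one-hour incubation. Reaction started with 50 nM fluorophore/quencher peptide substrate in pH 4.2 acetate (0.05 M) containing 100 uM genapol and 10% DMSO final.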

[1] = system: Cells stably expressing Amyloid Precursor Protein (APP); assay: In vitro BACE cell-based assay (HEK cell assay): Aβ40 in conditioned medium by sandwich ELISA; conditions: Homo sapiens, HEK293
Outline: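 Secreted Aβ40 was quantified by time-resolved fluorescence sandwich ELISA, capturing with pAb40 for 3 h at 4 °C and detecting with biotinylated 6E10 for 2 h at 4 °C. Media came from APP-expressing cells exposed 24 h to compounds (10-point series from 100 or 10 μM, 0.1% DMSO); IC50 derived from percent of control.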

CYP3A4 (CYP3A) = CYP3A4 (CYP3A) (Homo sapiens, UniProt P08684); assay: CYP3A inhibition assay (midazolam, pooled human liver microsomes); type: in vitro ADME; conditions: human, pooled human liver microsomes, pH 7.4, probe midazolam (printed as about […]); read-out: 3A4 IC50
Sequence of CYP3A4 (CYP3A) (P08684 2-503): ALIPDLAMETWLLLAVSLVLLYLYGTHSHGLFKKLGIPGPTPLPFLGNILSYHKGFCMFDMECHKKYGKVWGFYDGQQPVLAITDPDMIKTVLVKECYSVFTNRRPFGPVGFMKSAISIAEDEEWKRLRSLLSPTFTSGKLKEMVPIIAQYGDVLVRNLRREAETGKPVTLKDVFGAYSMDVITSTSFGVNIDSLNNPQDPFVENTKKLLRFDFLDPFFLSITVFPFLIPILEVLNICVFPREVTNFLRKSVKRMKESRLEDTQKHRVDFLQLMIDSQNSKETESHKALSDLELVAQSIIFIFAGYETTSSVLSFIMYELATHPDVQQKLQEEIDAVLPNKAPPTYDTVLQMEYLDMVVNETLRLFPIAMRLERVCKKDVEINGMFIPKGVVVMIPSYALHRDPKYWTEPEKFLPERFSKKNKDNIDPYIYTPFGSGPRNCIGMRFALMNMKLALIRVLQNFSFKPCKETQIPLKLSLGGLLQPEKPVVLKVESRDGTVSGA

[2] = Microsomal stability assay, human liver microsomes; type: in vitro ADME
Excerpt: (§1) Microsomal Stability Assay

[3] = Microsomal stability assay, rat liver microsomes; type: in vitro ADME
Excerpt: as §1

Sequence of BACE1 (P56817 46-501, species assumed): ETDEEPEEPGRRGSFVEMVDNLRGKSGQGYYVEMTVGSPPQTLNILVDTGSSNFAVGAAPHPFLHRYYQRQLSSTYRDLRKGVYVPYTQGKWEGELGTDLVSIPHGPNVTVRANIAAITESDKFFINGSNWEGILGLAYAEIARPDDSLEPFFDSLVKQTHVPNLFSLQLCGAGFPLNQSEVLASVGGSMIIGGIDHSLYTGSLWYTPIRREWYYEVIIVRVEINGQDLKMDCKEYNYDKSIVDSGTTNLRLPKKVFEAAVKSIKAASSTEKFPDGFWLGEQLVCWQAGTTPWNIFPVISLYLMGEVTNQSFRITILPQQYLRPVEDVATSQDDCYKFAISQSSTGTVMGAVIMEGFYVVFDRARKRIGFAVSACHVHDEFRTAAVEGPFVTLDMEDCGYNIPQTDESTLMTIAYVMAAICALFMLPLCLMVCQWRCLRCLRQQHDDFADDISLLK

Row | SMILES | IC50 (BACE1) | IC50 [1] | IC50 at 10 min (CYP3A4 (CYP3A)) | HLM [2] | RLM [3]
1 | C=CC[C@H](NC(=O)COC)[C@H](O)CN[C@H]1CC2(CCC2)Oc2ncc(C(F)(F)C(C)(C)C)cc21 [compound 234] | 2.41 µM | 5.63 µM | 4.1 µM | 299 µL/min/mg | 173 µL/min/mg
2 | C=CC[C@H](NC(=O)[C@@H](C)OC)[C@H](O)CN[C@H]1CC2(CCC2)Oc2c(-c3nccs3)cc(CC(C)C)cc21 [compound 210] | 0.092 µM | 1.11 µM | 0.2 µM | 829 µL/min/mg | 644 µL/min/mg
3 | C=CC[C@H](NC(C)=O)[C@H](O)CN[C@H]1CC2(CCC2)Oc2c1cc(CC(C)(C)C)nc2Nc1ccccc1 [compound 229, N-((1S)-1-((1R)-2-(((4′S)-6′-(2,2-dimethylpropyl)-8′-(phenylamino)-3′,4′-dihydrospiro[cyclobutane-1,2′-pyrano[2,3-c]pyridin]-4′-yl)amino)-1-hydroxyethyl)-3-buten-1-yl)acetamide] | 0.026 µM | 0.987 µM | 6.1 µM | 139 µL/min/mg | 150 µL/min/mg
4 | C=CC[C@H](NC(=O)COC)[C@H](O)CN[C@H]1CC2(CCC2)Oc2c1cc(CC(C)(C)C)cc2-n1ccnc1 [Example 216, N-((1S)-1-((1R)-2-(((4S)-6-(2,2-dimethylpropyl)-8-(1H-imidazol-1-yl)-3,4-dihydrospiro[chromene-2,1′-cyclobutan]-4-yl)amino)-1-hydroxyethyl)-3-buten-1-yl)-2-methoxyacetamide] | 0.442 µM | 0.328 µM | 0.2 µM | 49 µL/min/mg | 150 µL/min/mg
5 | C=CC[C@H](NC(=O)COC)[C@H](O)CN[C@H]1CC2(CCC2)Oc2c1cc(CC(C)C)cc2-n1ccnc1 [compound 209] | 0.338 µM | 0.328 µM | 0.1 µM | 31 µL/min/mg | 183 µL/min/mg
6 | C#CC[C@H](NC(C)=O)[C@H](O)CNC1CC2(CCC2)Oc2c1cc(CC(C)(C)C)nc2NC (stereo partly shown) [Example 221] | 0.078 µM | 0.058 µM | 1.9 µM | 61 µL/min/mg | 106 µL/min/mg
7 | C=CC[C@H](NC(=O)COC)[C@H](O)CN[C@H]1CC2(CCC2)Oc2c(Br)cc(CC(C)(C)C)cc21 [compound 214] | 0.044 µM | 2.17 µM | 0.9 µM | 492 µL/min/mg | 247 µL/min/mg
8 | C=CC[C@H](NC(=O)COC)[C@H](O)CN[C@H]1CC2(CCC2)Oc2c(-c3ccc4c(c3)OCO4)cc(CC(C)(C)C)cc21 [compound 231, N-((1S)-1-((1R)-2-(((4S)-8-(1,3-benzodioxol-5-yl)-6-(2,2-dimethylpropyl)-3,4-dihydrospiro[chromene-2,1′-cyclobutan]-4-yl)amino)-1-hydroxyethyl)-3-buten-1-yl)-2-methoxyacetamide] | 0.078 µM | 0.369 µM | 1 µM | 284 µL/min/mg | 232 µL/min/mg
9 | C=CC[C@H](NC(=O)COC)[C@H](O)CN[C@H]1CC2(CCC2)Oc2c(-c3nccs3)cc(CC(C)(C)C)cc21 [compound 215] | 0.057 µM | 0.838 µM | 1 µM | 736 µL/min/mg | 551 µL/min/mg
10 | C=CC[C@H](NC(=O)COC)[C@H](O)CN[C@H]1CC2(CCC2)Oc2c1cc(CC(C)(C)C)nc2Nc1nccs1 [compound 236] | 0.054 µM | 0.366 µM | 1.2 µM | 614 µL/min/mg | 119 µL/min/mg
11 | C=CC[C@H](NC(C)=O)[C@H](O)CN[C@H]1CC2(CCC2)Oc2c1cc(CC(C)(C)C)nc2Nc1nccs1 [compound 235] | 0.031 µM | 0.121 µM | 2.7 µM | 244 µL/min/mg | 100 µL/min/mg
12 | C=CC[C@H](NC(=O)CCC(C)(C)C)[C@H](O)CN[C@H]1CC2(CCC2)Oc2ncc(CC(C)(C)C)cc21 [compound 245] | 9.25 µM | 10 µM | 0.3 µM | 829 µL/min/mg | 459 µL/min/mg
13 | C=CC[C@H](NC(=O)COC)[C@H](O)CN[C@H]1CC2(CCC2)Oc2c(-c3cnc[nH]3)cc(CC(C)(C)C)cc21 [compound 218, N-((1S)-1-((1R)-2-(((4S)-6-(2,2-dimethylpropyl)-8-(1H-imidazol-5-yl)-3,4-dihydrospiro[chromene-2,1′-cyclobutan]-4-yl)amino)-1-hydroxyethyl)-3-buten-1-yl)-2-methoxyacetamide] | 0.179 µM | 0.071 µM | 0.3 µM | 215 µL/min/mg | 185 µL/min/mg
14 | CCC[C@H](NC(=O)[C@@H](C)OC)[C@H](O)CN[C@H]1CC2(CCC2)Oc2c1cc(CC(C)(C)C)nc2NC [compound 227] | 0.903 µM | 0.163 µM | 1.5 µM | 119 µL/min/mg | 212 µL/min/mg
15 | CCC[C@H](NC(=O)[C@@H](C)OC)[C@H](O)CN[C@H]1CC2(CCC2)Oc2c1cc(CC(C)(C)C)nc2Cl [compound 223, (2R)-N-((1S)-1-((1R)-2-(((4′S)-8′-chloro-6′-(2,2-dimethylpropyl)-3′,4′-dihydrospiro[cyclobutane-1,2′-pyrano[2,3-c]pyridin]-4′-yl)amino)-1-hydroxyethyl)butyl)-2-(methyloxy)propanamide] | 0.371 µM | 10 µM | 3.5 µM | 515 µL/min/mg | 249 µL/min/mg
16 | CCOC[C@H](NC(C)=O)[C@@H](O)CN[C@H]1CC2(CCC2)Oc2ncc(CC(C)(C)C)cc21 [compound 241] | 2.72 µM | 0.093 µM | 3.7 µM | 84 µL/min/mg | 45 µL/min/mg
17 | COC[C@H](NC(C)=O)[C@H](O)CN[C@H]1CC2(CCC2)Oc2ncc(CC(C)(C)C)cc21 [compound 225] | 0.48 µM | 0.462 µM | 27 µM | 40 µL/min/mg | 14 µL/min/mg
18 | C=CC[C@H](NC(=O)COC)[C@H](O)CN[C@H]1CC2(CCC2)Oc2c1cc(CC(C)(C)C)nc2-c1cncn1C [compound 238, N-((1S)-1-((1R)-2-(((4′S)-6′-(2,2-dimethylpropyl)-8′-(1-methyl-1H-imidazol-5-yl)-3′,4′-dihydrospiro[cyclobutane-1,2′-pyrano[2,3-c]pyridin]-4′-yl)amino)-1-hydroxyethyl)-3-buten-1-yl)-2-methoxyacetamide] | 0.946 µM | 0.149 µM | 0.16 µM | 58 µL/min/mg | 68 µL/min/mg
19 | C=CC[C@H](NC(=O)COC)[C@H](O)CN[C@H]1CC2(CCC2)Oc2c1cc(CC(C)(C)C)nc2Nc1cccnc1 [compound 240] | 0.268 µM | 0.345 µM | 0.5 µM | 551 µL/min/mg | 152 µL/min/mg
20 | C=CC[C@H](NC(=O)COCC)[C@H](O)CN[C@H]1CC2(CCC2)Oc2ncc(CC(C)(C)C)cc21 [compound 244] | 2.45 µM | 3.17 µM | 1.3 µM | 543 µL/min/mg | 176 µL/min/mg
